Source: article PMC2782674 (Biochemistry, 2009)
Entries after “also recorded” stand apart in the source; their conditions may differ. Read-outs that look alike come from different tables or passages of the source. Square brackets hold non-standard residues; d marks the D form. Peptide text beside a SMILES is read from it. Orn(N5-OH,N5-Ac) = CC(=O)N(O)CCC[C@H](N)C(=O)O

Experiments:
[1] = system: B. cereus ATCC 14579; type: cell-based, Bacillus cereus
[2] = molecular target: T1, YxeB (Bc_0383) (Bacillus cereus, UniProt Q81IK3); type: binding, B. cereus ATCC 14579; conditions: for Kd: pH 7
T1 sequence (Q81IK3 20-306): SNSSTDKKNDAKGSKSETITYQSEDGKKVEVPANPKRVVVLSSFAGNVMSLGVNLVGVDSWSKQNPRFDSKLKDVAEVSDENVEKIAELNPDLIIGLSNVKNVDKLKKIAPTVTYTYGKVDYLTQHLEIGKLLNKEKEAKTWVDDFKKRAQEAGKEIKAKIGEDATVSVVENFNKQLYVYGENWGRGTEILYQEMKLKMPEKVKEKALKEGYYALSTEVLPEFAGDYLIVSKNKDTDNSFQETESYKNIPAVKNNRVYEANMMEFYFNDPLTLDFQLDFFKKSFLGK

[3] = system: B. cereus ATCC 14579; type: cell-based, Bacillus cereus; remark: listed apart in the source
[4] = molecular target: T2, FpuA (Bc_4528) (Bacillus cereus, UniProt Q817L3); type: binding, B. cereus ATCC 14579
T2 sequence (Q817L3 19-324): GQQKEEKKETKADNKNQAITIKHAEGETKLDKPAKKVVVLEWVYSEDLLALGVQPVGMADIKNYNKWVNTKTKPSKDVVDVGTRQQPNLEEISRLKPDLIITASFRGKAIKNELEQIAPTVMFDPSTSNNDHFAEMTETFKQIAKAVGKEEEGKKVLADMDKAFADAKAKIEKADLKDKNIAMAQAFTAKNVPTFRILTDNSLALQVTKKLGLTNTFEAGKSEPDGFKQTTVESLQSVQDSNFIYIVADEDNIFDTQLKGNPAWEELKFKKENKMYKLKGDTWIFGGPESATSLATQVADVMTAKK

[5] = molecular target: T2, FpuA (Bc_4528); conditions: pH 6.8
[6] = molecular target: T3, FeuA (Bc_3738) (Bacillus cereus, UniProt Q81A53); assay: biochemical; type: binding, B. cereus ATCC 14579
T3 sequence (Q81A53 22-321): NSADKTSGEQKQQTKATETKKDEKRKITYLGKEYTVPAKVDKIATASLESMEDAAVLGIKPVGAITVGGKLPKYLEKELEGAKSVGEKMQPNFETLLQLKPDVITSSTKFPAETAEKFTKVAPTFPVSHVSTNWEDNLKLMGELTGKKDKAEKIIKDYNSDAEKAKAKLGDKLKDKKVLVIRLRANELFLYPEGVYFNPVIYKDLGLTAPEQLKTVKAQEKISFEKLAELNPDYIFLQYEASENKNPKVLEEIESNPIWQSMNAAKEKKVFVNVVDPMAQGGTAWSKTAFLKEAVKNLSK

[7] = molecular target: T4, FatB (Bc_5106) (Bacillus cereus, UniProt Q815N5); type: binding, B. cereus ATCC 14579
T4 sequence (Q815N5 24-338): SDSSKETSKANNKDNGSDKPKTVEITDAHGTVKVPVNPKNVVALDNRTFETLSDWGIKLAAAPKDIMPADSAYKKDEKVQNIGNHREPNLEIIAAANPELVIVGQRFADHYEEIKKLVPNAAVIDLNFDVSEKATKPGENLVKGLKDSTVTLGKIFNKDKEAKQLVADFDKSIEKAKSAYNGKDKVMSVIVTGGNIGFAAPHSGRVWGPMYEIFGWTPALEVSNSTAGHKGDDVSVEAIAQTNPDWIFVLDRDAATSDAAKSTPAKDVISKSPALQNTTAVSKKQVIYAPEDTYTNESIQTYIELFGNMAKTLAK

[8] = molecular target: T4, FatB (Bc_5106); conditions: pH 6.8

## CC(=O)N(O)CCCCCNC(=O)CCC(=O)N(O)CCCCCNC(=O)CCC(=O)N(O)CCCCCN.[Fe+3] [FeDFO]
[1]
  effect on transport of ^55FeFch: inhibited
[2]
  Kd: 0.018 µM

## CC(=O)N(O)CCC[C@@H]1NC(=O)CNC(=O)CNC(=O)CNC(=O)[C@H](CCCN(O)C(C)=O)NC(=O)[C@H](CCCN(O)C(C)=O)NC1=O.[Fe+3] [FeFch] (cyclo(GGG[Orn(N5-OH,N5-Ac)][Orn(N5-OH,N5-Ac)][Orn(N5-OH,N5-Ac)]))
[1]
  effect on uptake of ^55FeDFO: inhibited
[2]
  Kd: 0.03 µM

## O=C(O)c1ccc(O)c(O)c1 [3,4-DHB, 3,4-dihydroxybenzoic acid]
[3]
  Km: 0.4 ± 0.1 µM
  vmax: 2.3 ± 0.1 pmol Fe mL^-1 min^-1
[1]
  effect on uptake of radioactive ferric PB: inhibited
  effect on uptake of radioactive ferric PB^ν: inhibited
[4]
  ligand recognition by FpuA: not specifically quenched
[5]
  noncovalent complex with FpuA by ESI-MS (Molecular weight Measured): not observed

## C[C@H]1OC(=O)[C@@H](NC(=O)CNC(=O)c2cccc(O)c2O)[C@@H](C)OC(=O)[C@@H](NC(=O)CNC(=O)c2cccc(O)c2O)[C@@H](C)OC(=O)[C@H]1NC(=O)CNC(=O)c1cccc(O)c1O [BB, bacillibactin]
[6]; pH 7
  Kd: 0.059 µM
[7]
  ligand recognition by FatB: binding incompatibility; also recorded: no affinity

## CC(=O)N(O)CCCCCNC(=O)CCC(=O)N(O)CCCCCNC(=O)CCC(=O)N(O)CCCCCN [DFO, desferrioxamine B]
[2]
  change of YxeB fluorescence on binding: increase of SBP fluorescence

## FeEnt
[6]; pH 7
  Kd: 0.012 µM

## ferric citrate
[7]
  ligand recognition by FatB: no recognition
[4]
  ligand recognition by FpuA: no recognition
[8]
  noncovalent complex with FatB by ESI-MS (Molecular weight Measured): no protein-ligand complexes were detected
[5]
  noncovalent complex with FpuA by ESI-MS (Molecular weight Measured): no protein-ligand complexes were detected

## CC(=O)N([O-])CCC[C@@H]1NC(=O)CNC(=O)CNC(=O)CNC(=O)[C@H](CCCN([O-])C(C)=O)NC(=O)[C@H](CCCN([O-])C(C)=O)NC1=O.[Fe+3] [Fch, ferrichrome] (cyclo(GGG[Orn(N5-OH,N5-Ac)][Orn(N5-OH,N5-Ac)][Orn(N5-OH,N5-Ac)]))
[4]
  binding of the aposiderophore to FpuA: did not bind
  unspecific protein emission quenching of FpuA: 10-20%
[2]
  change of YxeB fluorescence on binding: increase of SBP fluorescence
[5]
  noncovalent complex with FpuA by ESI-MS (Molecular weight Measured): no protein-ligand complexes were detected

## O=C(CC(O)(CC(=O)NCCCCNCCCNC(=O)c1ccc(O)c(O)c1)C(=O)O)NCCCCNCCCNC(=O)c1ccc(O)c(O)c1 [PB, petrobactin]
[1]
  effect on incorporation of radioactive ferric Ent: only slightly affected
  effect on uptake of radioactive ferric 3,4-DHB: inhibited
  effect on uptake of radioactive ferric PB: inhibited
  effect on uptake of radioactive ferric PB^ν: inhibited
[4]; pH 7
  Kd: 0.023 µM
[8]
  noncovalent complex with FatB by ESI-MS (Molecular weight Measured): not observed
[5]
  noncovalent complex with FpuA by ESI-MS (Molecular weight Measured): not observed

## O=C(N[C@H]1COC(=O)[C@@H](NC(=O)c2cccc(O)c2O)COC(=O)[C@@H](NC(=O)c2cccc(O)c2O)COC1=O)c1cccc(O)c1O [Ent, enterobactin]
[6]
  Kd: 0.036 µM

## CC(=O)N(O)CCCNC(=O)CC(O)(CC(=O)NCCCN(O)C(C)=O)C(=O)O [Sch, schizokinen]
[4]
  ligand recognition by FpuA: binding incompatibility
